Tests used:
Format in all cases: cell-based
[1] = target: T1, EGFR L858R (BaF3-L858R cells) (Homo sapiens, UniProt P00533, L858R); assay: Cell degradation of EGFR, HTRF assay, BaF3-L858R cells; conditions: 16 h treatment; for DC50: EGFR degradation; for Dmax: maximum percentage of degradation
T1 construct: host or cells: BaF3
In short: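 EGFR L858R levels measured by HTRF antibody pair in lysed BaF3-L858R cells after 16 h compound exposure (8-point 5-fold series from 10 uM final, 37° C). Degradation is relative to DMSO-only cells; DC50 fitted with Hill equation, Dmax taken as the largest percent loss.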

[2] = target: T2, EGFR-L858R/C797S (H1975-clone #8 cells) (Homo sapiens, UniProt P00533, C797S/L858R); assay: Cell degradation of EGFR, HTRF assay, H1975-clone#8 (L858R/C797S) cells; conditions: 16 h treatment; for DC50: EGFR degradation; for Dmax: maximum percentage of degradation
T2 construct: expressed in transfected cells; host or cells: H1975 (endogenous EGFR knocked out, clone #8)

[3] = target: T3, p-EGFR L858R (BaF3-L858R cells) (Homo sapiens, UniProt P00533, L858R); assay: Cell p-EGFR inhibition assay, HTRF, BaF3-L858R cells; conditions: 16 h treatment; for Imax (%): maximum percentage of pEGFR inhibition; for IC50: pEGFR inhibition
T3 construct: host or cells: BaF3
In short: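 BaF3-L858R cells treated 16 h at 37 °C, 5% CO2 with compound from 10 uM top, 5-fold dilutions, 8 doses, in 0.1% DMSO medium. Lysates read overnight by HTRF p-EGFR antibodies; IC50 fitted to four-parameter curve against DMSO high control.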

[4] = target: p-EGFR Del19/C797S (H1975-clone #23 cells) (Homo sapiens, UniProt P00533); assay: Cell p-EGFR inhibition assay, HTRF, H1975-clone#23 (DEL19/C797S) cells; conditions: 16 h treatment; for Imax (%): maximum percentage of pEGFR inhibition; for IC50: pEGFR inhibition
In short: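 Phospho-EGFR read by overnight HTRF on lysates, normalized to DMSO-treated high control; IC50, Hill slope and Imax fitted. Compounds were applied for 16 h (10 uM top, 5-fold steps, 8 doses) to an H1975 single clone carrying only exogenous Del19/C797S EGFR after sgRNA knockout of endogenous copies.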

| DC50 [1] [nM] | Dmax [1] [%] | DC50 [2] [nM] | Dmax [2] [%] | Imax (%) [3] [%] | IC50 [3] [nM] | Imax (%) [4] [%] | IC50 [4] [nM] | Structure (SMILES) |
| --- | --- | --- | --- | --- | --- | --- | --- | --- |
| 3.4 | 89.5 | 5.5 | 85.7 | 91.3 | 10.9 | 99.2 | 9.5 | COC[C@@H]1CN(c2ccc3c(c2)N2CC4CC[C@H](COc5c(c(C(F)(F)F)nn5C)-c5cc(cc(C)n5)C(=O)/N=C/2N3)C4)CCN1C1CCN(c2cc(F)c([C@H]3CCC(=O)NC3=O)c(F)c2)CC1 [Example 77, (R)-3-(4-(4-((S)-4-((7^1R,7^3S,E)-1^1,2^6-dimethyl-3-oxo-1^3-(trifluoromethyl)-5^2,5^3-dihydro-1^1H,5^1H-9-oxa-4-aza-5(2,1)-benzo[d]imidazola-2(2,4)-pyridina-1(4,5)-pyrazola-7(1,3)-cyclopentanacyclononaphane-5^6-yl)-2-(methoxymethyl)piperazin-1-yl)piperidin-1-yl)-2,6-difluorophenyl)piperidine-2,6-dione] |
| 3.68 | 87.8 | 4.18 | 65.5 | 92.5 | 16.9 | 100.6 | 1.2 | Cc1cc2cc(n1)-c1cnn(C)c1OC[C@H]1CCC(C1)CN1/C(=N/C2=O)Nc2ccc(N3CCN(CCc4cc(F)c(C5CCC(=O)NC5=O)nc4C)CC3)cc21 (stereo partly shown) [Example 78, 3-(5-(2-(4-((7^1R,7^3S,E)-1^1,2^6-dimethyl-3-oxo-5^2,5^3-dihydro-1^1H,5^1H-9-oxa-4-aza-5(2,1)-benzo[d]imidazola-2(2,4)-pyridina-1(4,5)-pyrazola-7(1,3)-cyclopentanacyclononaphane-5^6-yl)piperazin-1-yl)ethyl)-3-fluoro-6-methylpyridin-2-yl)piperidine-2,6-dione] |
| 0.41 | 92.6 | 0.48 | 91.7 | 92.7 | 1.1 | 101.4 | 0.3 | Cc1cc2cc(n1)-c1c(C)nn(C)c1OC[C@H]1CCC(C1)CN1/C(=N/C2=O)Nc2ccc(N3CCN([C@@H]4CCN(c5ccc(C6CCC(=O)NC6=O)nc5C)C[C@@H]4F)CC3)cc21 (stereo partly drawn) [Example 79, 3-(5-((3S,4R)-3-fluoro-4-(4-((7^1R,7^3S,E)-1^1,1^3,2^6-trimethyl-3-oxo-5^2,5^3-dihydro-1^1H,5^1H-9-oxa-4-aza-5(2,1)-benzo[d]imidazola-2(2,4)-pyridina-1(4,5)-pyrazola-7(1,3)-cyclopentanacyclononaphane-5^6-yl)piperazin-1-yl)piperidin-1-yl)-6-methylpyridin-2-yl)piperidine-2,6-dione] |
| 1.73 | 88.1 | 5.24 | 82.4 | 91.7 | 3.8 | 99.9 | 1.6 | COC[C@@H]1CN(c2ccc3c(c2)N2CC4CC[C@H](COc5c(c(C)nn5C)-c5cc(cc(C)n5)C(=O)/N=C/2N3)C4)CCN1C1CCN(c2cc(F)c([C@H]3CCC(=O)NC3=O)c(F)c2)CC1 [Example 80, (R)-3-(2,6-difluoro-4-(4-((S)-2-(methoxymethyl)-4-((7R,7^3S,E)-1^1,1^3,2^6-trimethyl-3-oxo-5^2,5^3-dihydro-1^1H,5^1H-9-oxa-4-aza-5(2,1)-benzo[d]imidazola-2(2,4)-pyridina-1(4,5)-pyrazola-7(1,3)-cyclopentanacyclononaphane-5^6-yl)piperazin-1-yl)piperidin-1-yl)phenyl)piperidine-2,6-dione] |
| 0.31 | 74.1 | 0.8 | 89.2 | 91.9 | 3.1 | 101.1 | 1.1 | Cc1cc2cc(n1)-c1c(C)nn(C)c1OC[C@H]1CCC(C1)CN1/C(=N/C2=O)Nc2ccc(N3CCN([C@@H]4CCN(c5cc(F)c(C6CCC(=O)NC6=O)nc5C)C[C@@H]4F)CC3)cc21 (stereo partly drawn) [Example 82, 3-(3-fluoro-5-((3S,4R)-3-fluoro-4-(4-((7^1R,7^3S,E)-1^1,1^3,2^6-trimethyl-3-oxo-5^2,5^3-dihydro-1^1H,5^1H-9-oxa-4-aza-5(2,1)-benzo[d]imidazola-2(2,4)-pyridina-1(4,5)-pyrazola-7(1,3)-cyclopentanacyclononaphane-5^6-yl)piperazin-1-yl)piperidin-1-yl)-6-methylpyridin-2-yl)piperidine-2,6-dione] |
| 4.08 | 69.1 | 5.64 | 81.8 | 96.5 | 18 | 100.7 | 1 | Cc1cc2cc(n1)-c1cnn(C)c1OC[C@H]1CCC(C1)CN1/C(=N/C2=O)Nc2ccc(N3CCN([C@H]4CCN(c5ccc(C6CCC(=O)NC6=O)nc5C)CC4(F)F)CC3)cc21 (stereo partly drawn) [Example 83, 3-(5-((S)-4-(4-((7^1R,7^3S,E)-1^1,2^6-dimethyl-3-oxo-5^2,5^3-dihydro-1^1H,5^1H-9-oxa-4-aza-5(2,1)-benzo[d]imidazola-2(2,4)-pyridina-1(4,5)-pyrazola-7(1,3)-cyclopentanacyclononaphane-5^6-yl)piperazin-1-yl)-3,3-difluoropiperidin-1-yl)-6-methylpyridin-2-yl)piperidine-2,6-dione] |
| 4.23 | 78 | 4.91 | 83 | 97.5 | 11.6 | 99.7 | 3.1 | COC[C@@H]1CN(c2ccc3c(c2)N2CC4CC[C@H](COc5c(c(C(F)F)nn5C)-c5cc(cc(C)n5)C(=O)/N=C/2N3)C4)CCN1C1CCN(c2cc(F)c([C@H]3CCC(=O)NC3=O)c(F)c2)CC1 [Example 85, (R)-3-(4-(4-((S)-4-((7^1R,7^3S,E)-1^3-(difluoromethyl)-1^1,2^6-dimethyl-3-oxo-5^2,5^3-dihydro-1^1H,5^1H-9-oxa-4-aza-5(2,1)-benzo[d]imidazola-2(2,4)-pyridina-1(4,5)-pyrazola-7(1,3)-cyclopentanacyclononaphane-5^6-yl)-2-(methoxymethyl)piperazin-1-yl)piperidin-1-yl)-2,6-difluorophenyl)piperidine-2,6-dione] |
| 2.74 | 70.3 | 3.22 | 66 | 97.1 | 17.2 | 100.2 | 3 | COC[C@@H]1CN(c2ccc3c(c2)N2CC4CC[C@H](COc5c(cnn5C)-c5cc(cc(C)n5)C(=O)/N=C/2N3)C4)CCN1CC1CN(c2cc(F)c([C@H]3CCC(=O)NC3=O)c(F)c2)C1 [Example 86, (R)-3-(4-(3-(((S)-4-((7^1R,7^3S,E)-1^1,2^6-dimethyl-3-oxo-5^2,5^3-dihydro-1^1H,5^1H-9-oxa-4-aza-5(2,1)-benzo[d]imidazola-2(2,4)-pyridina-1(4,5)-pyrazola-7(1,3)-cyclopentanacyclononaphane-5^6-yl)-2-(methoxymethyl)piperazin-1-yl)methyl)azetidin-1-yl)-2,6-difluorophenyl)piperidine-2,6-dione] |

Reference: US20240425523A1, “Compounds for the Degradation of EGFR Kinase” (Beigene Switzerland GMBH, priority 2023, published 2024)
